Laboratory results from ChEMBL document CHEMBL2439965, “Dialkylimidazole inhibitors of Trypanosoma cruzi sterol 14α-demethylase as anti-Chagas disease agents” (Bioorg Med Chem Lett, 2013).
pEC50, pIC50: −log10 of the molar value.

How the values were obtained:
[1] = test system: Trypanosoma cruzi; experiment: microbe, parasite or virus in culture; settings: Tulahuen, NIH3T3, 168 h
Description: Antitrypanosomal activity against Trypanosoma cruzi Tulahuen infected in 3T3 cells after 7 days by beta-galactosidase assay

[2] = physchem; settings: octanol/water
Description: Lipophilicity, log P of the compound

[3] = Cytotoxicity against human CRL8155 cells; format: cell-based

| Compound | pEC50 [1] | logP [2] | pIC50 [3] |
| --- | --- | --- | --- |
| Nc1cc(-c2ccccc2)ccc1Cn1cncc1CNc1ccc(F)c(F)c1 | 8.49 | 4 | – |
| Nc1cc(-c2ccccc2)ccc1Cn1cncc1CNc1ccc(F)cc1 | 8.96 | 3.8 | – |
| Cc1ccc(NCc2cncn2Cc2ccc(-c3ccccc3)cc2N)cc1-c1c(F)cccc1F | 9.40 | 6.2 | < 5.30 |
| Nc1cc(Cl)ccc1Cn1cncc1CNc1ccc(-c2nc3ccccc3s2)c(-c2ccccc2)c1 | 8.85 | – | – |
| COc1ccc(Cn2cncc2CNc2ccc(F)c(-c3ccccc3)c2)c(N)c1 | 7.84 | 4.7 | – |
| Nc1cc(Cl)ccc1Cn1cncc1CNc1ccc(F)c(-c2ccccc2)c1 | 7.89 | 4.5 | – |
| Nc1ccccc1Cn1cncc1CNc1ccc(F)c(-c2ccccc2)c1 | 6.63 | 3.8 | – |
| Nc1cc(N2CCOCC2)ccc1Cn1cncc1CNc1ccc(F)c(F)c1 | 6.45 | 2.2 | – |
| Cc1cc(NCc2cnc(C)n2Cc2ccc(-c3ccccc3)cc2N)ccc1F | < 6.00 | 4.5 | – |
| Cc1ncc(CNc2ccc(F)c(Cl)c2)n1Cc1ccc(-c2ccccc2)cc1N | < 6.00 | 4.6 | – |
| Cc1ncc(CNc2ccc(F)cc2)n1Cc1ccc(-c2ccccc2)cc1N | < 6.00 | 4 | – |
| Fc1ccc(NCc2cncn2Cc2cccc3cc[nH]c23)cc1-c1ccccc1 | 6.48 | 4.8 | – |
| Clc1ccc(NCc2cncn2Cc2cccc3cc[nH]c23)cc1-c1ccccc1 | 6.48 | 5.2 | – |
| CCN1CCC(Cn2cncc2CNc2ccc(Cl)c(-c3ccccc3)c2)CC1 | < 6.00 | 4.3 | 4.76 |
| Clc1ccc(NCc2cncn2CC2CCNCC2)cc1-c1ccccc1 | < 6.00 | 3.5 | – |
| COc1ccc(NCc2cncn2Cc2ccccc2)nc1-c1ccccc1 | 6.16 | 4.2 | – |
| Nc1cc(-c2ccccc2)ccc1Cn1cncc1CNc1ccc(Cl)c(Cl)c1 | 8.05 | 5 | – |
| Nc1cc(-c2ccccc2)ccc1Cn1cncc1CNc1ccc(Cl)c(N2CCCCC2)c1 | 8.96 | 5.3 | < 5.30 |
| Nc1cc(-c2ccccc2)ccc1Cn1cncc1CNc1ccc(Cl)c(-n2ccnc2)c1 | 8.30 | 3.5 | 4.84 |

| Compound | pEC50 [1] | logP [2] | pIC50 [3] |
| --- | --- | --- | --- |
| Nc1cc(-c2ccccc2)ccc1Cn1cncc1CNc1ccc(Cl)c(-n2cccc2)c1 | 8.42 | 4.8 | – |
| Cc1cc(NCc2cncn2Cc2ccc(-c3ccccc3)cc2N)ccc1Cl | 9.22 | 4.4 | 4.89 |
| Nc1cc(-c2ccccc2)ccc1Cn1cncc1CNc1ccc(Cl)cc1 | 8.68 | 4.3 | – |
| Nc1cc(-c2ccccc2)ccc1Cn1cncc1CNc1ccc(F)c(-c2c(F)cccc2F)c1 | 9.40 | 5.8 | – |
| Nc1cc(-c2ccccc2)ccc1Cn1cncc1CNc1ccc(F)c(Cl)c1 | 8.92 | 4.3 | – |
| Cc1cc(NCc2cncn2Cc2ccc(F)cc2F)ccc1F | 6.57 | 3.8 | – |
| Fc1ccc(Cn2cncc2CNc2ccc(F)c(F)c2)c(F)c1 | 6.67 | 3.5 | – |
| Fc1ccc(NCc2cncn2Cc2ccc(F)cc2F)cc1 | 6.45 | 3.3 | – |
| Clc1ccc(NCc2cncn2Cc2ccc(-c3ccccc3)cc2Cl)cc1 | 7.08 | 5.7 | – |
| Cc1cc(NCc2cncn2Cc2ccc(-c3ccccc3)cc2Cl)ccc1F | 7.59 | 5.8 | – |
| Fc1ccc(NCc2cncn2Cc2ccc(-c3ccccc3)cc2Cl)cc1Cl | 7.31 | 5.9 | – |
| Fc1ccc(NCc2cncn2Cc2ccc(-c3ccccc3)cc2Cl)cc1F | 7.42 | 5.4 | – |
| Cc1ncc(CNc2ccc(F)c(F)c2)n1Cc1ccc(-c2ccccc2)cc1N | < 6.00 | 4.1 | – |
| Fc1ccc(NCc2cncn2Cc2ccc(-c3ccccc3)cc2F)cc1 | 7.15 | 4.8 | – |
| Cc1cc(NCc2cncn2Cc2ccc(-c3ccccc3)cc2F)ccc1F | 7.28 | 5.3 | – |
| Fc1ccc(NCc2cncn2Cc2ccc(-c3ccccc3)cc2F)cc1Cl | 7.31 | 5.4 | – |
| Fc1ccc(NCc2cncn2Cc2ccc(-c3ccccc3)cc2F)cc1F | 7.34 | 5 | – |
| CC[C@@H]([C@H](C)O)n1ncn(-c2ccc(N3CCN(c4ccc(OC[C@@H]5CO[C@@](Cn6cncn6)(c6ccc(F)cc6F)C5)cc4)CC3)cc2)c1=O [POSACONAZOLE] | > 9.00 | – | – |

The next lines start with results.

| pEC50 [1] | logP [2] | Compound | pIC50 [3] |
| --- | --- | --- | --- |
| 9.00 | 7.6 | Nc1cc(-c2ccccc2)ccc1Cn1cncc1CNc1ccc(-c2nc3ccccc3s2)c(-c2ccccc2)c1 | – |
| 7.01 | 5.9 | CC1CCN(CCOc2ccc(NCc3cncn3Cc3ccc(-c4ccccc4)cc3)cc2-c2ccccc2)CC1 | 5.35 |
| 8.82 | – | Nc1cc(-c2ccccc2)ccc1Cn1cncc1CNc1ccc(OCCN2CCOCC2)c(-c2ccc(Cl)cc2)c1 | – |
| 8.24 | 5.1 | CC1CCN(CCOc2ccc(NCc3cncn3Cc3ccc(-c4ccccn4)cc3N)cc2-c2ccccc2)CC1 | 5.28 |
| 7.90 | 5.8 | COc1ccc(NCc2cncn2Cc2ccc(-c3ccccc3)cc2)nc1-c1ccccc1 | – |
| 7.06 | 6.5 | Nc1cc(-c2ccccc2)ccc1Cn1cncc1CNc1ccc(Cl)c(-c2ccccc2N2CCCC2)c1 | – |
| 7.61 | 5.9 | Nc1cc(-c2ccccc2)ccc1Cn1cncc1CNc1ccc(Cl)c(-c2ccccc2N2CCOCC2)c1 | – |
| 7.68 | 4.7 | Nc1cc(-c2ccccc2)ccc1Cn1cncc1CNc1ccc(Cl)c(-c2ccccc2N2CCCCC2)c1 | – |
| 9.52 | 5.1 | Nc1ccc(-c2cc(NCc3cncn3Cc3ccc(-c4ccccc4)cc3N)ccc2Cl)cc1 | 4.89 |
| 9.10 | 5.5 | Nc1cc(-c2ccccc2)ccc1Cn1cncc1CNc1ccc(F)c(-c2ccccc2)c1 | 4.73 |
| 7.93 | 6.6 | Fc1ccc(NCc2cncn2Cc2ccc(-c3ccccc3)cc2)cc1-c1c(F)cccc1F | 4.76 |
| 7.45 | 6.6 | COc1cc(-c2ccccc2)ccc1Cn1cncc1CNc1ccc(Cl)c(-c2ccccc2)c1 | – |
| 8.23 | 6.5 | Oc1cc(-c2ccccc2)ccc1Cn1cncc1CNc1ccc(Cl)c(-c2ccccc2)c1 | 4.67 |
| 7.05 | 8 | Oc1cc(-c2ccccc2)ccc1Cn1cncc1CNc1ccc(-c2nc3ccccc3s2)c(-c2ccccc2)c1 | – |
| < 6.00 | 7.2 | O=C(O)c1cc(-c2ccccc2)ccc1Cn1cncc1CNc1ccc(-c2nc3ccccc3s2)c(-c2ccccc2)c1 | – |
| 7.57 | 8.2 | COc1cc(-c2ccccc2)ccc1Cn1cncc1CNc1ccc(-c2nc3ccccc3s2)c(-c2ccccc2)c1 | – |
| 7.45 | 5.9 | c1ccc(-c2ccc(Cn3cncc3CNc3ccc(OCCN4CCOCC4)c(-c4ccccc4)c3)cc2)cc1 | – |
| 6.94 | 5.9 | c1ccc(-c2ccc(Cn3cncc3CNc3ccc(NCCN4CCOCC4)c(-c4ccccc4)c3)cc2)cc1 | – |
| 6.50 | 6.9 | c1ccc(-c2ccc(Cn3cncc3CNc3ccc(OCCN4CCCCC4)c(-c4ccccc4)c3)cc2)cc1 | – |
| 6.71 | 6.6 | c1ccc(-c2ccc(Cn3cncc3CNc3ccc(NCCN4CCCCC4)c(-c4ccccc4)c3)cc2)cc1 | 4.97 |

| pEC50 [1] | logP [2] | Compound | pIC50 [3] |
| --- | --- | --- | --- |
| 7.92 | 6.5 | Fc1cc(-c2ccccc2)ccc1Cn1cncc1CNc1ccc(F)c(-c2ccccc2)c1 | – |
| 8.27 | 8.9 | Cc1cccc(-c2ccc(Cn3cncc3CNc3ccc(-c4nc5ccccc5s4)c(-c4ccccc4)c3)cc2)c1 | – |
| 7.96 | 8.1 | Oc1ccc(-c2cc(NCc3cncn3Cc3ccc(-c4ccccc4)cc3)ccc2-c2nc3ccccc3s2)cc1 | 4.70 |
| 8.00 | 8.2 | COc1ccc(-c2cc(NCc3cncn3Cc3ccc(-c4ccccc4)cc3)ccc2-c2nc3ccccc3s2)cc1 | – |
| 8.80 | 7.6 | Nc1ccc(-c2cc(NCc3cncn3Cc3ccc(-c4ccccc4)cc3)ccc2-c2nc3ccccc3s2)cc1 | 4.56 |
| 7.49 | 8.2 | N#Cc1ccc(-c2cc(NCc3cncn3Cc3ccc(-c4ccccc4)cc3)ccc2-c2nc3ccccc3s2)cc1 | – |
| 7.44 | 7 | Cc1ccc(NCc2cncn2Cc2ccc(-c3ccccc3)cc2)cc1-c1c(F)cccc1F | – |
| 7.57 | 5.6 | Clc1ccc(NCc2cncn2Cc2ccc(-c3ccccc3)cc2)cc1-c1ccncc1 | – |
| 7.52 | 5.6 | Clc1ccc(NCc2cncn2Cc2ccc(-c3ccccc3)cc2)cc1-n1cccc1 | – |
| 7.27 | 6.1 | Clc1ccc(NCc2cncn2Cc2ccc(-c3ccccc3)cc2)cc1N1CCCCC1 | – |
| 7.19 | 5.6 | Clc1ccc(NCc2cncn2Cc2ccc(-c3ccccc3)cc2)cc1-c1cccnc1 | – |
| 7.67 | 7.4 | c1ccc(-c2cc(NCc3cncn3Cc3ccc(-c4ccco4)cc3)ccc2-c2nc3ccccc3s2)cc1 | – |
| 7.71 | 7.5 | c1ccc(-c2cc(NCc3cncn3Cc3ccc(-c4ccccn4)cc3)ccc2-c2nc3ccccc3s2)cc1 | – |
| 7.95 | 8.2 | c1ccc(-c2cc(NCc3cncn3Cc3ccc(-c4cccs4)cc3)ccc2-c2nc3ccccc3s2)cc1 | – |
| 7.12 | 7.6 | Nc1ccccc1-c1ccc(Cn2cncc2CNc2ccc(-c3nc4ccccc4s3)c(-c3ccccc3)c2)cc1 | – |
| 6.91 | 8.1 | Oc1ccccc1-c1ccc(Cn2cncc2CNc2ccc(-c3nc4ccccc4s3)c(-c3ccccc3)c2)cc1 | – |
| 7.30 | 8.9 | Cc1ccc(-c2ccc(Cn3cncc3CNc3ccc(-c4nc5ccccc5s4)c(-c4ccccc4)c3)cc2)cc1 | – |
| 7.31 | 9 | Clc1ccc(-c2ccc(Cn3cncc3CNc3ccc(-c4nc5ccccc5s4)c(-c4ccccc4)c3)cc2)cc1 | – |
| 7.70 | 8.4 | c1ccc(-c2ccc(Cn3cncc3CNc3ccc(-c4nc5ccccc5s4)c(-c4ccccc4)c3)cc2)cc1 | – |
